# Results reported in patent US6635671B1, “Compounds which affect mRNA stability and uses therefor” (Novation Pharmaceuticals Inc., priority 1998, dated 2003).
# Like-named read-outs stand apart in the source and are kept apart here.
# How the values were obtained:
# [1] = tested on: THP-1 clone No. 63 (pGL2_Neo30; luciferase mRNA with three tandem AUUUA motifs of the IL-1β 3′UTR); experiment: Luciferase reporter gene assay, clone No. 63 (pGL2_Neo30, with mRNA instability sequence); assay type: cell-based, human; design: Luciferase reporter gene assay, luciferase activity: unit not given here; settings: for Luciferase reporter gene assay, luciferase activity: clone 63; for inhibition at 1 µM: Homo sapiens, THP-1, clone No. 63
# Description: (§1) In order to obtain a vector for stable integration into THP-1 cells, a XhoI-SalI fragment of the neo resistant gene (expressing aminoglycoside 3′ phosphotransferase) derived from pMCIneo (Stratagene) is subcloned into the SalI site of pGL2Control (Promega). This resulting plasmid was called pGL2_Neo. A 30 bp fragment (containing three tandem AUUUA motifs, based on the IL-Iβ3′UTR sequence) obtained by annealing two complementary synthetic oligonucleotides (see FIG. 1) is subcloned into pGL2 Neo using the PflM1 restriction site.
# (§2) The resulting vectors pGL2_Neo30 and pGL2_Neo are transfected into THP-1 cells by electroporation. 10^7 cells/ml in 1.3 mM KH2PO4, 7.36 m.M Na2HPO4, 2.44 mM KCl, 124 mm NaCl, 5 mM glucose, 9.6 μM MgCl2 and 16 μM CaCI2 pH 7.2 are transfected with 20 μg of DNA in a Bio-Rad Gene Pulser (250V, 690 μF and indefinite resistance) using a 0.4 cm cuvette. Cells are subsequently cultured in RPMI medium containing 10%FBS, 2mM L-Gln (L-glutamine), 50 μM 2mercaptoethanol and 600 μg/ml of G418 (geneticin). After transfection of pGL2_Neo30 and pGL2_Neo into THP-1 cells, stable cell lines are obtained by selection for G418 resistance and assayed for luciferase activity. One cell line of each transfection is chosen for further analysis; the pGL2_Neo30 cell line is referred to as clone No. 63 and the pGL2_Neo cell line as clone No. 53. No endogenous luciferase activity could be detected in normal THP-1 cells.
# (§3) The transfected human monocytic leukemia cell lines, clones No. 53 and 63 are grown in RPMI medium supplemented with 110 U/ml penicillin, 100 μg/ml streptomycin, 2 mM L-Gln and 2 g/l NaHCO3. Heat-treated FBS (5%) is added before use. The cells are grown to a density of 5×10^5/ml and induced to differentiate with 100 U/ml (final concentration) γIFN. Three hours later, 10 μl of LPS (5 μg/ml final concentration) is added. This time point is designated time 0. Compounds are added at various times after LPS addition as indicated.
# (§4) In order to adapt the system to the use of 96 well plates, cells are grown in Packard flat bottom white polystyrene microplates (Cat No.6005180) in RPMI medium lacking phenol red (AMIMED). Cells are plated at 5×10^4/well. After treatment of the cells, luciferase is measured using the Packard Luc Lite system (Cat. No.601691 1) according to the manufacturer's instructions in a final volume of 205 μl. Briefly, to a cell suspension of 5×10^5 cells/ml, γIFN (1000 U/ml Boehringer Mannheim No. 1050494) to a final concentration of 100 U/ml and 0.25% (v/v) Luc Lite Enhancer is added. After a 3 hour incubation LPS (50 μg/ml SIGMA L-8274) is added to give 5 μg/ml final concentration. The cells are then plated at 5×10^4/100 l/well into flat bottom white polystyrene microplates (Packard, Cat No. 6005180) and incubated for 16 hours. 5 μl of compound solution or control vehicle is then added and the cells are further incubated as indicated. 100 μl of luciferase substrate solution is added and the plates are covered with TopSeal-A press-on adhesive sealing film (Packard Cat.No. 6005185) before measuring luminescence with a Packard Top Count Scintillation Counter at 22° C. The luciferase signal is stable for at least 90 min.
# (§5) The THP-1 cell lines, clone No. 63 (containing PGL2_Neo30) and clone No. 53 (containing pGL2-Control) are grown, differentiated and stimulated with γIFN and LPS identical to normal THP-1 cells. Radicicol analog A is added 16 hours after the addition of LPS and cell extracts are then taken 8 hours later or as indicated. Luciferase activity is inhibited by 1 μM radicicol analog A on average by 50%±17%, in some cases inhibition was as great as 93%, whereas up to 5×10^−6M of radical analog A has no effects on the control clone No. 53, FIG. 3 (solid bars indicate clone No. 53, open bars clone No. 63).
# (§6) A number of radicicol analogues are tested for their activity in the reporter assay substantially as described in the previous Examples.
# [2] = tested on: THP-1 clone No. 53 (pGL2_Neo / pGL2-Control); experiment: Luciferase reporter gene assay, control clone No. 53 (no instability sequence); assay type: cell-based, human; design: Luciferase reporter gene assay, luciferase activity: unit not given here; settings: for Luciferase reporter gene assay, luciferase activity: clone 53
# Description: as §1, §2, §3, §4, §5, §6
# [3] = tested on: IL-1β mRNA; settings: THP-1 cells activated by IFN-γ and LPS; cited from earlier work
# [4] = tested on: IL-1β; settings: THP-1 cells activated by IFN-γ and LPS; cited from earlier work
# [5] = tested on: TNF-α mRNA; settings: THP-1 cells activated by IFN-γ and LPS; cited from earlier work
# [6] = tested on: IL-6 mRNA; settings: THP-1 cells activated by IFN-γ and LPS; cited from earlier work
Structure (SMILES),"Luciferase reporter gene assay, luciferase activity ([1]; 0.5 μM)","Luciferase reporter gene assay, luciferase activity ([1]; 1 μM)","Luciferase reporter gene assay, luciferase activity ([1]; 5 μM)","Luciferase reporter gene assay, luciferase activity ([2]; 0.5 μM)","Luciferase reporter gene assay, luciferase activity ([2]; 1 μM)","Luciferase reporter gene assay, luciferase activity ([2]; 5 μM)",Time of degradation of IL-1β mRNA to undetectable levels [3] [h],"inhibition at 1 µM ([1]; 1 μM, added 16 h after LPS, extracts 8 h later, read-out: Inhibition of luciferase activity, on average) [%]","inhibition at 1 µM ([1]; 1 μM, read-out: Inhibition of luciferase activity, greatest inhibition in some cases) [%]","Effect on luciferase activity of control clone ([2]; clone No. 53, up to 5×10^−6M)",Secretion of IL-1β [4],Time of degradation of TNF-α mRNA to undetectable levels [5] [h],Time of degradation of IL-6 mRNA to undetectable levels [6] [h]
C[C@@H]1C[C@H]2O[C@@H]2/C=C\C=C\C(=O)Cc2c(Cl)c(O)cc(O)c2C(=O)O1,42,18,3,68,51,40,,,,,,,
COc1cc(O)c2c(c1OC)/C=C/C[C@H](O)[C@H](O)C(=O)/C=C/C[C@H](C)OC2=O,96,94,7,97,91,55,,,,,,,
COc1cc(O)c2c(c1OC)/C=C/C[C@H](O)[C@H](O)C(=O)/C=C\C[C@H](C)OC2=O [radicicol analog A],,,,,,,5 to 8,50,93,no effects,inhibited the secretion of IL-1β,5 to 8,5 to 8
COc1cc(O)c2c(c1)/C=C/CC(O)C(O)C(=O)/C=C\CC(C)OC2=O (stereo not shown),97,88,87,114,105,107,,,,,,,
COc1cc(O)c2c(c1OC)/C=C/C[C@H](O)[C@H](O)C(=O)/C=C\C[C@H](C)OC2=O [drawing 13],69,32,9,136,140,108,,,,,,,
C[C@@H]1C[C@H]2O[C@@H]2CCCCC(=O)Cc2cc(O)cc(O)c2C(=O)O1,80,66,61,83,81,70,,,,,,,
COc1cc(O)c2c(c1)/C=C/CC(O)C(O)C(=O)CCCC(C)OC2=O (stereo not shown),107,93,70,103,122,104,,,,,,,
C[C@@H]1C[C@H]2O[C@@H]2CCCCC(=O)Cc2c(Cl)c(O)cc(O)c2C(=O)O1,88,64,57,99,77,69,,,,,,,
